Reference: PubChem BioAssay AID328 (DTP/NCI, 2004)
Where “and” joins values, the source holds several entries; their conditions need not be identical. Equal values may be shown once. Inconclusive results and toxic doses are left out.

Tested on: BDF1 mice, P388 leukemia ip, median survival T/C
Experiment: NCI In Vivo Anticancer Drug Screen. Data for tumor model P388 Leukemia (intraperitoneal) in B6D2F1 (BDF1) mice
Conditions: endpoint: median survival time, higher = longer survival
Summary of the method: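 In tumour-bearing mice, survival after compound treatment is set against the vehicle group and given as a quotient.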

[1] = dose: 50.0 mg/kg/injection, schedule: Q01DX009 (ip), vehicle: Klucel (hydroxypropylcellulose) (HPC)
[2] = dose: 200.0 mg/kg/injection, schedule: Q04DX003 (ip), vehicle: Klucel (hydroxypropylcellulose) (HPC)
[3] = dose: 400.0 mg/kg/injection, schedule: Q01DX009 (ip), vehicle: Klucel (hydroxypropylcellulose) (HPC)
[4] = dose: 400.0 mg/kg/injection, schedule: Q04DX003 (ip), vehicle: Klucel (hydroxypropylcellulose) (HPC)
[5] = dose: 100.0 mg/kg/injection, schedule: Q04DX003 (ip), vehicle: saline with Tween-80
[6] = dose: 200.0 mg/kg/injection, schedule: Q04DX003 (ip), vehicle: saline with Tween-80
[7] = dose: 400.0 mg/kg/injection, schedule: Q04DX003 (ip), vehicle: saline with Tween-80
[8] = dose: 12.5 mg/kg/injection, schedule: Q04DX003 (ip), vehicle: saline
[9] = dose: 50.0 mg/kg/injection, schedule: Q04DX003 (ip), vehicle: saline
[10] = dose: 50.0 mg/kg/injection, schedule: Q04DX003 (ip), vehicle: Klucel (hydroxypropylcellulose) (HPC)
[11] = dose: 100.0 mg/kg/injection, schedule: Q01DX009 (ip), vehicle: Klucel (hydroxypropylcellulose) (HPC)
[12] = dose: 100.0 mg/kg/injection, schedule: Q04DX003 (ip), vehicle: Klucel (hydroxypropylcellulose) (HPC)
[13] = dose: 200.0 mg/kg/injection, schedule: Q01DX009 (ip), vehicle: Klucel (hydroxypropylcellulose) (HPC)
[14] = dose: 100.0 mg/kg/injection, schedule: Q01DX009 (ip), vehicle: saline with Tween-80
[15] = dose: 200.0 mg/kg/injection, schedule: Q01DX009 (ip), vehicle: saline with Tween-80
[16] = dose: 50.0 mg/kg/injection, schedule: Q01DX009 (ip), vehicle: saline with Tween-80

## Cc1cc(N)c2cc(NC(=O)CCCCCCCCC(=O)Nc3ccc4nc(C)cc(N)c4c3)ccc2n1
dose: 5.5 mg/kg/injection, schedule: Q01DX009 (ip), vehicle: Klucel (hydroxypropylcellulose) (HPC)
  T/C: 108 % of control
dose: 8.2 mg/kg/injection, schedule: Q01DX009 (ip), vehicle: Klucel (hydroxypropylcellulose) (HPC)
  T/C: 121 % of control
dose: 8.3 mg/kg/injection, schedule: Q04DX003 (ip), vehicle: Klucel (hydroxypropylcellulose) (HPC)
  T/C: 91 % of control
dose: 12.0 mg/kg/injection, schedule: Q04DX003 (ip), vehicle: Klucel (hydroxypropylcellulose) (HPC)
  T/C: 104 % of control
dose: 45.0 mg/kg/injection, schedule: Q04DX003 (ip), vehicle: Klucel (hydroxypropylcellulose) (HPC)
  T/C: 150 % of control
[1]
  T/C: 186 % of control
dose: 80.0 mg/kg/injection, schedule: Q04DX003 (ip), vehicle: Klucel (hydroxypropylcellulose) (HPC)
  T/C: 168 % of control
dose: 100.0 mg/kg/injection, schedule: Q04DX003 (ip), vehicle: other
  T/C: 172 % of control
dose: 120.0 mg/kg/injection, schedule: Q04DX003 (ip), vehicle: Klucel (hydroxypropylcellulose) (HPC)
  T/C: 172 % of control
dose: 180.0 mg/kg/injection, schedule: Q04DX003 (ip), vehicle: Klucel (hydroxypropylcellulose) (HPC)
  T/C: 177 % of control
[2]
  T/C: 150 % of control
dose: 200.0 mg/kg/injection, schedule: Q04DX003 (ip), vehicle: other
  T/C: 181 % of control
dose: 264.0 mg/kg/injection, schedule: Q04DX003 (ip), vehicle: Klucel (hydroxypropylcellulose) (HPC)
  T/C: 227 % of control
[3]
  T/C: 160 % of control
[4]
  T/C: 261 % of control and 160 % of control
dose: 400.0 mg/kg/injection, schedule: Q04DX003 (ip), vehicle: other
  T/C: 186 % of control

## CCC(C)NC(=S)N/N=C\C=N/NC(=S)NC(C)CC (stereo not drawn)
dose: 75.0 mg/kg/injection, schedule: Q01DX009 (ip), vehicle: saline with Tween-80
  T/C: 99 % of control
dose: 150.0 mg/kg/injection, schedule: Q01DX009 (ip), vehicle: saline with Tween-80
  T/C: 92 % of control
dose: 300.0 mg/kg/injection, schedule: Q01DX009 (ip), vehicle: saline with Tween-80
  T/C: 103 % of control

## CCN(C(=O)C(F)(F)F)C1(c2ccc(Cl)cc2)CCCCC1SSSC1CCCCC1(c1ccc(Cl)cc1)N(CC)C(=O)C(F)(F)F (stereo not drawn)
[5]
  T/C: 100 % of control
[6]
  T/C: 100 % of control
[7]
  T/C: 104 % of control

## CC(C)(C)c1cccc(C(C)(C)C)c1OC(=O)NS(=O)(=O)c1ccccc1
[8]
  T/C: 111 % of control
dose: 25.0 mg/kg/injection, schedule: Q04DX003 (ip), vehicle: saline
  T/C: 105 % of control
[9]
  T/C: 100 % of control
dose: 75.0 mg/kg/injection, schedule: Q04DX003 (ip), vehicle: Klucel (hydroxypropylcellulose) (HPC)
  T/C: 104 % of control
dose: 115.0 mg/kg/injection, schedule: Q04DX003 (ip), vehicle: Klucel (hydroxypropylcellulose) (HPC)
  T/C: 104 % of control

## CS(=O)(=O)OCCN1CCC2(CC1)SSC1(CCN(CCOS(C)(=O)=O)CC1)S2
dose: 3.12 mg/kg/injection, schedule: Q01DX009 (ip), vehicle: saline
  T/C: 95 % of control and 96 % of control
dose: 6.25 mg/kg/injection, schedule: Q01DX009 (ip), vehicle: saline
  T/C: 115 % of control
dose: 7.5 mg/kg/injection, schedule: Q04DX003 (ip), vehicle: saline
  T/C: 122 % of control
dose: 10.0 mg/kg/injection, schedule: Q01DX009 (ip), vehicle: saline
  T/C: 154 % of control
dose: 12.5 mg/kg/injection, schedule: Q01DX009 (ip), vehicle: saline
  T/C: 109 % of control and 115 % of control
[8]
  T/C: 122 % of control

## C#CCOC(=O)NC1CCCCC1
[1]
  T/C: 100 % of control
[10]
  T/C: 100 % of control
[11]
  T/C: 100 % of control
[12]
  T/C: 95 % of control
[13]
  T/C: 100 % of control
[2]
  T/C: 109 % of control

## C=CC(=O)NC(C)C(=O)O (stereo not drawn)
dose: 50.0 mg/kg/injection, schedule: Q01DX009 (ip), vehicle: saline
  T/C: 105 % of control
dose: 100.0 mg/kg/injection, schedule: Q01DX009 (ip), vehicle: saline
  T/C: 105 % of control
dose: 200.0 mg/kg/injection, schedule: Q01DX009 (ip), vehicle: saline
  T/C: 100 % of control

## Nc1ccc(/C=C2\C=Cc3ccccc32)cc1
dose: 17.75 mg/kg/injection, schedule: Q04DX003 (ip), vehicle: saline sonified
  T/C: 100 % of control
dose: 18.75 mg/kg/injection, schedule: Q01DX009 (ip), vehicle: saline with Tween-80
  T/C: 90 % of control
dose: 37.5 mg/kg/injection, schedule: Q01DX009 (ip), vehicle: saline with Tween-80
  T/C: 100 % of control
dose: 37.5 mg/kg/injection, schedule: Q04DX003 (ip), vehicle: saline sonified
  T/C: 100 % of control
dose: 75.0 mg/kg/injection, schedule: Q04DX003 (ip), vehicle: saline sonified
  T/C: 95 % of control

## CN(C)c1ccc(/C=C/c2ccc3ccccc3n2)c(F)c1
[12]
  T/C: 90 % of control
[2]
  T/C: 95 % of control
[4]
  T/C: 90 % of control

## C=CC(C)(C)C12CC3C(=O)N/C(=C\c4cnc[nH]4)C(=O)N3C1Nc1ccccc12 (stereo not drawn)
[1]
  T/C: 94 % of control
[11]
  T/C: 94 % of control
[13]
  T/C: 92 % of control

## CCN(CC)N=Nc1ccccc1-c1nc(N)c2ccccc2n1
[10]
  T/C: 157 % of control
[12]
  T/C: 161 % of control
[2]
  T/C: 180 % of control

## N#Cc1c(N)sc(N)c1C#N
[13]
  T/C: 115 % of control
[3]
  T/C: 110 % of control

## COC(OC)C12CC(OC(=O)N1)C(C)CO2 (stereo not drawn)
[9]
  T/C: 98 % of control
dose: 100.0 mg/kg/injection, schedule: Q04DX003 (ip), vehicle: saline
  T/C: 106 % of control
dose: 200.0 mg/kg/injection, schedule: Q04DX003 (ip), vehicle: saline
  T/C: 96 % of control

## Cc1ccc2c(c1)C(=O)CCS2
[12]
  T/C: 100 % of control
[2]
  T/C: 100 % of control
[4]
  T/C: 100 % of control

## O=C(Nc1ccc(F)cc1F)Oc1cccc2cccnc12
[1]
  T/C: 104 % of control
[11]
  T/C: 106 % of control
[13]
  T/C: 113 % of control
[3]
  T/C: 104 % of control

## NC(C(=O)O)C(O)c1ccc2c(c1)OCO2 (stereo not drawn)
[14]
  T/C: 95 % of control
[15]
  T/C: 105 % of control
dose: 400.0 mg/kg/injection, schedule: Q01DX009 (ip), vehicle: saline with Tween-80
  T/C: 95 % of control

## CC(=O)c1ccccc1[N+](=O)[O-]
[16]
  T/C: 95 % of control
[14]
  T/C: 100 % of control
[5]
  T/C: 95 % of control
[15]
  T/C: 86 % of control
[6]
  T/C: 90 % of control
[7]
  T/C: 100 % of control

## OC(Cc1ccccc1)(c1ccccc1)c1cccc2ccccc12 (stereo not drawn)
[11]
  T/C: 100 % of control
[13]
  T/C: 100 % of control
[3]
  T/C: 104 % of control

## COC(=O)C1(C(=O)OC)N=C(C)OO1
[16]
  T/C: 121 % of control
[14]
  T/C: 112 % of control

## CC1(C)c2c3ccccc3cc3cccc(c23)[S+]1c1ccccc1 (stereo not drawn)
dose: 10.0 mg/kg/injection, schedule: Q01DX009 (ip), vehicle: saline with Tween-80
  T/C: 120 % of control

## COc1cccc(CCCC(=O)C(C)S(C)=O)c1 (stereo not drawn)
[16]
  T/C: 112 % of control
[14]
  T/C: 101 % of control
[15]
  T/C: 110 % of control

## CN(Nc1c([N+](=O)[O-])cc([N+](=O)[O-])cc1[N+](=O)[O-])c1cccc2ccccc12
dose: 25.0 mg/kg/injection, schedule: Q04DX003 (ip), vehicle: Klucel (hydroxypropylcellulose) (HPC)
  T/C: 109 % of control
[10]
  T/C: 100 % of control
[12]
  T/C: 100 % of control
[2]
  T/C: 86 % of control
[4]
  T/C: 90 % of control

## CC(=O)N(C)C(C(=O)N1CC(C)CC1C(=O)N(C)C1C(=O)NC(CC(C)C)C(=O)N2CC(C)CC2C(=O)NC(CC(C)C)C(=O)N(C)C(C(C)C)C(=O)N2CCCC2C(=O)N(C)C(CC(C)C)C(=O)NCC(=O)OC1C)C(C)C (stereo not drawn)
dose: 37.5 mg/kg/injection, schedule: Q01DX009 (ip), vehicle: Klucel (hydroxypropylcellulose) (HPC)
  T/C: 107 % of control
dose: 75.0 mg/kg/injection, schedule: Q01DX009 (ip), vehicle: Klucel (hydroxypropylcellulose) (HPC)
  T/C: 107 % of control

## CC1C2CCCC1(OC(=O)c1cc([N+](=O)[O-])cc([N+](=O)[O-])c1)C2 (stereo not drawn)
dose: 100.0 mg/kg/injection, schedule: Q04DX002 (ip), vehicle: saline with Tween-80
  T/C: 101 % of control
dose: 200.0 mg/kg/injection, schedule: Q04DX002 (ip), vehicle: saline with Tween-80
  T/C: 94 % of control
dose: 400.0 mg/kg/injection, schedule: Q04DX002 (ip), vehicle: saline with Tween-80
  T/C: 95 % of control

## COc1ccc2c(c1)CCC1=C2C=C[P+]1(C)C
dose: 12.5 mg/kg/injection, schedule: Q01DX009 (ip), vehicle: saline with Tween-80
  T/C: 92 % of control
dose: 25.0 mg/kg/injection, schedule: Q01DX009 (ip), vehicle: saline with Tween-80
  T/C: 111 % of control
